Reference: patent US20260022142A1, “MACROCYCLIC IMMUNOMODULATORS” (Bristol-Myers Squibb Company, priority 2022, published 2026)
Bridge positions count the residues as written; N and C are the ends. Square brackets hold non-standard residues; d marks the D form. Peptide text beside a SMILES is read from it. * marks the point of attachment. Phe(3,4-Cl2) = N[C@@H](Cc1ccc(Cl)c(Cl)c1)C(=O)O; Phe(4-COOH) = N[C@@H](Cc1ccc(C(=O)O)cc1)C(=O)O; Bip = N[C@@H](Cc1ccc(-c2ccccc2)cc1)C(=O)O; Phe(3-Me) = Cc1cccc(C[C@H](N)C(=O)O)c1; Val(3-OH) = CC(C)(O)[C@H](N)C(=O)O; 4Pal = N[C@@H](Cc1ccncc1)C(=O)O; Cha = N[C@@H](CC1CCCCC1)C(=O)O; Cit = NC(=O)NCCC[C@H](N)C(=O)O; aThr = C[C@H](O)[C@H](N)C(=O)O; Carboxymethyl = O=C(O)C*; Orn = NCCC[C@H](N)C(=O)O; Aun = NCCCCCCCCCCC(=O)O; Dab = NCC[C@H](N)C(=O)O; Dap = NC[C@H](N)C(=O)O; AEEA = NCCOCCOCC(=O)O

The molecules below were run against T1, PD-1/PD-L1 interaction (PE-labeled human PD-L1-Ig binding to Jurkat cell line over-expressing human PD-1) (Homo sapiens, UniProt Q15116) (assay: Jurkat-PD-1 Cell Binding High-Content Screening Assay (CBA)). Details: Jurkat cell line over-expressing human PD-1; PE-labeled PD-L1-Ig 20 nM final; read-out: Jurkat hPD1-PDL1 IC50.
T1 construct: expressed in transfected cells; host or cells: Jurkat
Type: cell-based
Procedure, shortened: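 Jurkat cells over-expressing human PD-1 (8×10^3 per well, DMEM/10% FCS) preincubated with compound 2 h at 37° C, then PE-labeled human PD-L1-Ig (20 nM final) added for 1 h. Cells fixed with paraformaldehyde, Hoechst-stained, and bound fluorescence quantified by high-content imaging.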

T1 sequence (Q15116 25-288): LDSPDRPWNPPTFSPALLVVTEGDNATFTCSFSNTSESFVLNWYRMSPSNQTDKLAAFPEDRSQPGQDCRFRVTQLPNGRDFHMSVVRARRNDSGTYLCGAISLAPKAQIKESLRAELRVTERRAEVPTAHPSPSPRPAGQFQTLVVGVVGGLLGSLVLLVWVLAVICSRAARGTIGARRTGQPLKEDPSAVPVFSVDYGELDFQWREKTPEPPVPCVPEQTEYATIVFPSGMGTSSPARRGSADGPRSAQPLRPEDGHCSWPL

Row | SMILES | IC50 [nM]
1 | Cc1cccc(C[C@@H]2NC(=O)[C@H](CC(=O)O)NC(=O)[C@H](Cc3ccc(OCC(=O)O)cc3)NC(=O)[C@H]([C@H](C)O)NC(=O)CSC[C@@H](C(=O)N[C@H](CC(N)=O)C(=O)NCCOCCOCC(=O)NCCCCCCCCCCC(=O)O)NC(=O)[C@H](CCCCN)NC(=O)[C@H](C(C)C)NC(=O)[C@H](CC3CCCCC3)NC(=O)[C@H](CCN)NC(=O)[C@@H](CC(C)C)NC(=O)[C@H](CCN)NC(=O)[C@H](C(C)C)NC(=O)[C@H](Cc3ccc(-c4ccccc4)cc3)NC(=O)[C@H](C(C)C)NC2=O)c1 [Compound 3256] ({CH2CO}-[aThr]Y(Carboxymethyl)D[Phe(3-Me)]V[Bip]V[Dab][dL][Dab][Cha]VKC[dN][AEEA][Aun]-OH; thioether N-14) | 4
2 | Cc1cccc(C[C@@H]2NC(=O)[C@H](CC(=O)O)NC(=O)[C@H](Cc3ccc(OCC(=O)O)cc3)NC(=O)[C@H](CN)NC(=O)CSC[C@@H](C(=O)N[C@@H](C)C(=O)N[C@@H](CCC(=O)O)C(=O)NCC(=O)NCCCCCCCCCCC(=O)O)NC(=O)[C@H]([C@@H](C)O)NC(=O)[C@H](C(C)C)NC(=O)[C@H](CC3CCCCC3)NC(=O)[C@H](CCN)NC(=O)[C@@H](CC(C)C)NC(=O)[C@H](CCCN)NC(=O)[C@H](CCCNC(N)=O)NC(=O)[C@H](Cc3ccc(-c4ccccc4)cc3)NC(=O)[C@H](C(C)C)NC2=O)c1 [Compound 1000] ({CH2CO}-[Dap]Y(Carboxymethyl)D[Phe(3-Me)]V[Bip][Cit][Orn][dL][Dab][Cha]VTCAEG[Aun]-OH; thioether N-14) | 5.5
3 | CC(C)C[C@H]1NC(=O)[C@H](CCCN)NC(=O)[C@H](Cc2ccc(O)cc2)NC(=O)[C@H](Cc2ccc(-c3ccccc3)cc2)NC(=O)[C@H](C(C)C)NC(=O)[C@H](Cc2c[nH]c3ccccc23)NC(=O)[C@H](CC(=O)O)NC(=O)[C@H](Cc2ccc(O)cc2)NC(=O)[C@H](Cc2ccncc2)NC(=O)CSC[C@@H](C(=O)N[C@@H](CCN)C(=O)NCCOCCOCC(=O)NCCCCCCCCCCC(=O)O)NC(=O)[C@H](CCCN)NC(=O)[C@H](C(C)C)NC(=O)[C@H](CC2CCCCC2)NC(=O)[C@H](CCN)NC1=O [Compound 2703] ({CH2CO}-[4Pal]YDWV[Bip]Y[Orn][dL][Dab][Cha]V[Orn]C[Dab][AEEA][Aun]-OH; thioether N-14) | 19.3
4 | CC(C)C[C@H]1NC(=O)[C@H](CCCN)NC(=O)[C@H](Cc2ccc(O)cc2)NC(=O)[C@H](Cc2ccc(-c3ccccc3)cc2)NC(=O)[C@H](Cc2ccc(O)cc2)NC(=O)[C@H](Cc2c[nH]c3ccccc23)NC(=O)[C@H](CC(=O)O)NC(=O)[C@H](Cc2ccc(C(=O)O)cc2)NC(=O)[C@H](Cc2ccc(OCC(=O)O)cc2)NC(=O)CSC[C@@H](C(=O)NCCOCCOCC(=O)NCCCCCCCCCCC(=O)O)NC(=O)[C@H](CCCCN)NC(=O)[C@H](Cc2ccc(O)cc2)NC(=O)[C@H](CC2CCCCC2)NC(=O)[C@H](CCN)NC1=O [Compound 2515] ({CH2CO}-Y(Carboxymethyl)[Phe(4-COOH)]DWY[Bip]Y[Orn][dL][Dab][Cha]YKC[AEEA][Aun]-OH; thioether N-14) | 40.4
5 | Cc1cccc(C[C@@H]2NC(=O)[C@H](CC(=O)O)NC(=O)[C@H](Cc3ccc(OCC(=O)O)cc3)NC(=O)[C@H](Cc3ccc(OCC(=O)O)cc3)NC(=O)CSC[C@@H](C(=O)N[C@@H](CCCN)C(=O)NCCCCCCCCCCC(=O)O)NC(=O)[C@H](CO)NC(=O)[C@H](C(C)C)NC(=O)[C@H](CC(C)C)NC(=O)[C@H](CCN)NC(=O)[C@@H](CC(C)C)NC(=O)[C@H](CCCN)NC(=O)[C@H](C(C)C)NC(=O)[C@H](Cc3ccc(-c4ccccc4)cc3)NC(=O)[C@@H](CC(C)C)NC2=O)c1 [Compound 1141] ({CH2CO}-Y(Carboxymethyl)Y(Carboxymethyl)D[Phe(3-Me)][dL][Bip]V[Orn][dL][Dab]LVSC[Orn][Aun]-OH; thioether N-14) | 41

Further lines, results first:

Row | IC50 [nM] | SMILES
6 | 6.9 | Cc1cccc(C[C@@H]2NC(=O)[C@H](CC(=O)O)NC(=O)[C@H](Cc3ccc(OCC(=O)O)cc3)NC(=O)[C@H](CN)NC(=O)CSC[C@@H](C(=O)N[C@@H](CCN)C(=O)NCCOCCOCC(=O)NCCCCCCCCCCC(=O)O)NC(=O)[C@H](CCCN)NC(=O)[C@H](C(C)C)NC(=O)[C@H](CC3CCCCC3)NC(=O)[C@H](CCN)NC(=O)[C@@H](CC(C)C)NC(=O)[C@H](CCCN)NC(=O)[C@H](Cc3ccncc3)NC(=O)[C@H](Cc3ccc(-c4ccccc4)cc3)NC(=O)[C@H](Cc3ccc(O)cc3)NC2=O)c1 [Compound 2053] ({CH2CO}-[Dap]Y(Carboxymethyl)D[Phe(3-Me)]Y[Bip][4Pal][Orn][dL][Dab][Cha]V[Orn]C[Dab][AEEA][Aun]-OH; thioether N-14)
7 | 24.1 | Cc1cccc(C[C@@H]2NC(=O)[C@H](CC(=O)O)NC(=O)[C@H](Cc3ccc(OCC(=O)O)cc3)NC(=O)[C@H](CCCNC(=N)N)NC(=O)CSC[C@@H](C(=O)N[C@@H](CCN)C(=O)NCCCCCCCCCCC(=O)O)NC(=O)[C@H]([C@@H](C)O)NC(=O)[C@H](C(C)C)NC(=O)[C@H](CC3CCCCC3)NC(=O)[C@H](CCN)NC(=O)[C@@H](CC(C)C)NC(=O)[C@H](CCCN)NC(=O)[C@H](Cc3ccc(O)cc3)NC(=O)[C@H](Cc3ccc(-c4ccccc4)cc3)NC(=O)[C@H](Cc3ccc(O)cc3)NC2=O)c1 [Compound 2726] ({CH2CO}-RY(Carboxymethyl)D[Phe(3-Me)]Y[Bip]Y[Orn][dL][Dab][Cha]VTC[Dab][Aun]-OH; thioether N-14)
8 | 49.6 | CC(C)C[C@H]1NC(=O)[C@H](CCCN)NC(=O)[C@H](Cc2ccc(O)cc2)NC(=O)[C@H](Cc2ccc(-c3ccccc3)cc2)NC(=O)[C@H](Cc2ccc(OCC(=O)O)cc2)NC(=O)[C@H](Cc2ccc(Cl)c(Cl)c2)NC(=O)[C@H](CC(=O)O)NC(=O)[C@H](Cc2ccc(OCC(=O)O)cc2)NC(=O)[C@H](CN)NC(=O)CSC[C@@H](C(=O)N[C@@H](CCN)C(=O)NCCOCCOCC(=O)NCCCCCCCCCCC(=O)O)NC(=O)[C@H](CCCN)NC(=O)[C@H](C(C)C)NC(=O)[C@H](CC2CCCCC2)NC(=O)[C@H](CCN)NC1=O [Compound 1307] ({CH2CO}-[Dap]Y(Carboxymethyl)D[Phe(3,4-Cl2)]Y(Carboxymethyl)[Bip]Y[Orn][dL][Dab][Cha]V[Orn]C[Dab][AEEA][Aun]-OH; thioether N-14)
9 | 14 | Cc1cccc(C[C@@H]2NC(=O)[C@H](CC(=O)O)NC(=O)[C@H](Cc3ccc(OCC(=O)O)cc3)NC(=O)[C@H]([C@@H](C)O)NC(=O)CSC[C@@H](C(=O)N[C@@H](CCN)C(=O)NCCCCCCCCCCC(=O)O)NC(=O)[C@H](CO)NC(=O)[C@H](C(C)(C)O)NC(=O)[C@H](CC3CCCCC3)NC(=O)[C@H](CCN)NC(=O)[C@@H](CC(C)C)NC(=O)[C@H](CCCN)NC(=O)[C@H](Cc3ccc(OCC(=O)O)cc3)NC(=O)[C@H](Cc3ccc(-c4ccccc4)cc3)NC(=O)[C@H](Cc3ccc(OCC(=O)O)cc3)NC2=O)c1 [Compound 2208] ({CH2CO}-TY(Carboxymethyl)D[Phe(3-Me)]Y(Carboxymethyl)[Bip]Y(Carboxymethyl)[Orn][dL][Dab][Cha][Val(3-OH)]SC[Dab][Aun]-OH; thioether N-14)
